Patent US9409884B2 (Rigel Pharmaceuticals, Inc., priority 2012, dated 2016)

Each compound was assayed against AMPK (assay: AMPK activation, enzyme-linked immunosorbent assay). Details: Table 14, compounds of Table 7.
Type: biochemical
In short: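 Read-out: ELISA, used to detect compound-driven activation of AMPK.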

Compared with `COc1ccc(CN2CCC(NC(=O)c3ccc(C(=O)N4CCC(Oc5ccc(S(C)(=O)=O)c(C)c5)CC4)nc3)CC2)cc1` [Compound 7-16, N-(1-(4-methoxybenzyl)piperidin-4-yl)-6-(4-(3-methyl-4-(methylsulfonyl)phenoxy)piperidine-1-carbonyl) nicotinamide], `COc1ccc(CN2CCC(NC(=O)c3ccc(C(=O)N4CCC(Oc5ccc6sc(C)nc6c5)CC4)nc3)CC2)cc1` [Compound 7-24, N-(1-(4-methoxybenzyl)piperidin-4-yl)-6-(4-(2-methylbenzo[d]thiazol-5-yloxy)piperidine-1-carbonyl)nicotinamide] is lower in EC50: 1 to 10 µM for the first, under 1 µM for the second.

`COCCN(C(=O)c1ccc(C(=O)N2CCC(C(=O)c3ccc(OC)cc3)CC2)nc1)C1CCN(Cc2ccc(C#N)cc2)CC1` [Compound 7-17, N-(1-(4-cyanobenzyl)piperidin-4-yl)-6-(4-(4-methoxybenzoyl)piperidine-1-carbonyl)-N-(2-methoxyethyl)nicotinamide] and `COCCN(C(=O)c1ccc(C(=O)N2CCC(C(=O)c3ccc(OC)cc3)CC2)nc1)C1CCN(Cc2ccc(OC(F)(F)F)cc2)CC1` [Compound 7-18, 6-(4-(4-methoxybenzoyl)piperidine-1-carbonyl)-N-(2-methoxyethyl)-N-(1-(4-(trifluoromethoxy)benzyl)piperidin-4-yl)nicotinamide] cannot be ordered by EC50: under 1 µM for the first, under 1 µM for the second.

First: COc1ccc(C(=O)C2CCN(C(=O)c3ncc(C(=O)NC4CCN(Cc5ccc(C#N)cc5)CC4)cc3CCCNC(=O)CCOCCOCCOCCOCCNC(=O)CCCC[C@@H]3SC[C@@H]4NC(=O)N[C@@H]43)CC2)cc1 [Compound 7-19, N-(1-(4-cyanobenzyl)piperidin-4-yl)-5-(5,21-dioxo-25-((3aS,4S,6aR)-2-oxohexahydro-1H-thieno[3,4-d]imidazol-4-yl)-8,11,14,17-tetraoxa-4,20-diazapentacosyl)-6-(4-(4-methoxybenzoyl)piperidine-1-carbonyl)nicotinamide]
Second: COc1ccc(C(=O)C2CCN(C(=O)c3ccc(C(=O)NC4CCN(Cc5cccc(C#N)c5)C[C@@H]4F)cn3)CC2)cc1 (stereo partly drawn) [Compound 7-27, N-((3,4-trans)-1-(3-cyanobenzyl)-3-fluoropiperidin-4-yl)-6-(4-(4-methoxybenzoyl)piperidine-1-carbonyl)nicotinamide]
The EC50 of the first is higher: 10 to 20 µM for the first, under 1 µM for the second.

`CC(=O)c1ccc(Oc2ccc(NC(=O)c3ccc(C(=O)N4CCC(Oc5ccc6sc(C)nc6c5)CC4)nc3)cn2)cc1` [Compound 7-20, N-(6-(4-acetylphenoxy)pyridin-3-yl)-6-(4-(2-methylbenzo[d]thiazol-5-yloxy)piperidine-1-carbonyl)nicotinamide] and `Cc1nc2cc(OC3CCN(C(=O)c4ccc(C(=O)Nc5ccc(Oc6ccc(C#N)cc6)nc5)cn4)CC3)ccc2s1` [Compound 7-25, N-(6-(4-cyanophenoxy)pyridin-3-yl)-6-(4-(2-methylbenzo[d]thiazol-5-yloxy)piperidine-1-carbonyl)nicotinamide] cannot be ordered by EC50: under 1 µM for the first, under 1 µM for the second.

`COc1ccc(CN2CCC(NC(=O)c3ccc(C(=O)N4CCC(C(=O)c5ccc(OC)cc5)CC4)nc3)[C@@H](F)C2)cc1` (stereo partly drawn) [Compound 7-21, N-((3,4-trans)-3-fluoro-1-(4-methoxybenzyl)piperidin-4-yl)-6-(4-(4-methoxybenzoyl)piperidine-1-carbonyl)nicotinamide] and `COc1ccc(CN2CCC(NC(=O)c3ccc(C(=O)N4CCC(C(=O)c5ccc(OC)cc5)CC4)nc3)[C@H](F)C2)cc1` (stereo partly drawn) [Compound 7-26, N-((3,4-trans)-3-fluoro-1-(4-methoxybenzyl)piperidin-4-yl)-6-(4-(4-methoxybenzoyl)piperidine-1-carbonyl)nicotinamide] cannot be ordered by EC50: under 1 µM for the first, under 1 µM for the second.

`Cc1nc2cc(OC3CCN(C(=O)c4ccc(C(=O)NC5CCN(Cc6ccc(C#N)cc6)CC5)cn4)CC3)ccc2s1` [Compound 7-22, N-(1-(4-cyanobenzyl)piperidin-4-yl)-6-(4-(2-methylbenzo[d]thiazol-5-yloxy)piperidine-1-carbonyl)nicotinamide] and `Cc1nc2cc(OC3CCN(C(=O)c4ccc(C(=O)NC5CCN(Cc6ccc(OC(F)(F)F)cc6)CC5)cn4)CC3)ccc2s1` [Compound 7-23, 6-(4-(2-methylbenzo[d]thiazol-5-yloxy)piperidine-1-carbonyl)-N-(1-(4-(trifluoromethoxy)benzyl)piperidin-4-yl)nicotinamide] cannot be ordered by EC50: under 1 µM for the first, under 1 µM for the second.

`COc1ccc(C(=O)C2CCN(C(=O)c3ccc(C(=O)NC4CCN(Cc5ccc(C(F)(F)F)cc5)C[C@@H]4F)cn3)CC2)cc1` (stereo partly drawn) [Compound 7-28, N-((3,4-trans)-3-fluoro-1-(4-(trifluoromethyl)benzyl)piperidin-4-yl)-6-(4-(4-methoxybenzoyl)piperidine-1-carbonyl)nicotinamide] and `COc1ccc(C(=O)C2CCN(C(=O)c3ccc(C(=O)NC4CCN(Cc5ccc(OC(F)(F)F)cc5)C[C@H]4F)cn3)CC2)cc1` (stereo partly drawn) [Compound 7-33, (3,4-trans)-3-fluoro-4-(6-(4-(4-methoxybenzoyl)piperidine-1-carbonyl)nicotinamido)-1-(4-(trifluoromethoxy)benzyl) piperidinium] cannot be ordered by EC50: under 1 µM for the first, under 1 µM for the second.

`COc1ccc(C(=O)C2CCN(C(=O)c3ccc(C(=O)NC4CCN(Cc5cccc(C#N)c5)C[C@H]4F)cn3)CC2)cc1` (stereo partly drawn) [Compound 7-29, N-((3,4-trans)-1-(3-cyanobenzyl)-3-fluoropiperidin-4-yl)-6-(4-(4-methoxybenzoyl)piperidine-1-carbonyl)nicotinamide] and `COc1ccc(C(=O)C2CCN(C(=O)c3ccc(C(=O)NC4CCN(Cc5cccc(OC)c5)C[C@H]4F)cn3)CC2)cc1` (stereo partly drawn) [Compound 7-30, N-((3,4-trans)-3-fluoro-1-(3-methoxybenzyl)piperidin-4-yl)-6-(4-(4-methoxybenzoyl)piperidine-1-carbonyl)nicotinamide] cannot be ordered by EC50: under 1 µM for the first, under 1 µM for the second.

`COc1ccc(C(=O)C2CCN(C(=O)c3ccc(C(=O)NC4CCN(Cc5cccc(C(F)(F)F)c5)C[C@H]4F)cn3)CC2)cc1` (stereo partly drawn) [Compound 7-32, N-((3,4-trans)-3-fluoro-1-(3-(trifluoromethyl)benzyl)piperidin-4-yl)-6-(4-(4-methoxybenzoyl)piperidine-1-carbonyl)nicotinamide] and `COc1ccc(C(=O)C2CCN(C(=O)c3ccc(C(=O)NC4CCN(Cc5cccc(C(F)(F)F)c5)C[C@@H]4F)cn3)CC2)cc1` (stereo partly drawn) [Compound 7-34, N-((3,4-trans)-3-fluoro-1-(3-(trifluoromethyl)benzyl)piperidin-4-yl)-6-(4-(4-methoxybenzoyl)piperidine-1-carbonyl)nicotinamide] cannot be ordered by EC50: under 1 µM for the first, under 1 µM for the second.

`COc1ccc(C(=O)C2CCN(C(=O)c3ccc(C(=O)NC4CCN(Cc5ccc(F)c(C)c5)C[C@H]4F)cn3)CC2)cc1` (stereo partly drawn) [Compound 7-37, N-((3,4-trans)-3-fluoro-1-(4-fluoro-3-methylbenzyl)piperidin-4-yl)-6-(4-(4-methoxybenzoyl)piperidine-1-carbonyl)nicotinamide] and `COc1ccc(C(=O)C2CCN(C(=O)c3ccc(C(=O)NC4CCN(Cc5ccc(F)c(OC)c5)C[C@H]4F)cn3)CC2)cc1` (stereo partly drawn) [Compound 7-43, N-((3,4-trans)-3-fluoro-1-(4-fluoro-3-methoxybenzyl)piperidin-4-yl)-6-(4-(4-methoxybenzoyl)piperidine-1-carbonyl)nicotinamide] cannot be ordered by EC50: under 1 µM for the first, under 1 µM for the second.

`Cn1cnc2cc(OC3CCN(C(=O)c4ccc(C(=O)NC5CCN(Cc6ccc(C#N)cc6)CC5)cn4)CC3)ccc21` [Compound 7-38, N-(1-(4-cyanobenzyl)piperidin-4-yl)-6-(4-(1-methyl-1H-benzo[d]imidazol-5-yloxy)piperidine-1-carbonyl)nicotinamide] and `COc1ccc(CN2CCC(NC(=O)c3ccc(C(=O)N4CCC(Oc5ccc6c(c5)ncn6C)CC4)nc3)CC2)cc1` [Compound 7-40, N-(1-(4-methoxybenzyl)piperidin-4-yl)-6-(4-(1-methyl-1H-benzo[d]imidazol-5-yloxy)piperidine-1-carbonyl)nicotinamide] fall in the same range of EC50: 1 to 10 µM for the first, 1 to 10 µM for the second.

First: COc1ccc(C(=O)C2CCN(C(=O)c3ccc(C(=O)NC4CCN(Cc5ccc(-n6cccn6)cc5)C[C@H]4F)cn3)CC2)cc1 (stereo partly drawn) [Compound 7-41, N-((3,4-trans)-1-(4-(1H-pyrazol-1-yl)benzyl)-3-fluoropiperidin-4-yl)-6-(4-(4-methoxybenzoyl)piperidine-1-carbonyl)nicotinamide]
Second: COc1ccc(C(=O)C2CCN(C(=O)c3ccc(C(=O)NC4CCN(Cc5ccc(-n6ccnc6)cc5)C[C@H]4F)cn3)CC2)cc1 (stereo partly drawn) [Compound 7-42, N-((3,4-trans)-1-(4-(1H-imidazol-1-yl)benzyl)-3-fluoropiperidin-4-yl)-6-(4-(4-methoxybenzoyl)piperidine-1-carbonyl)nicotinamide]
The EC50 of the first is lower: under 1 µM for the first, 1 to 10 µM for the second.

`COc1ccc(C(=O)C2CCN(C(=O)c3ccc(C(=O)NC4CCN(Cc5ccc(OC)c(F)c5)C[C@H]4F)cn3)CC2)cc1` (stereo partly drawn) [Compound 7-44, N-((3,4-trans)-3-fluoro-1-(3-fluoro-4-methoxybenzyl)piperidin-4-yl)-6-(4-(4-methoxybenzoyl)piperidine-1-carbonyl)nicotinamide] and `COc1ccc(C(=O)C2CCN(C(=O)c3ccc(C(=O)NC4CCN(Cc5ccc(F)c(C(F)(F)F)c5)C[C@H]4F)cn3)CC2)cc1` (stereo partly drawn) [Compound 7-45, N-((3,4-trans)-3-fluoro-1-(4-fluoro-3-(trifluoromethyl)benzyl)piperidin-4-yl)-6-(4-(4-methoxybenzoyl)piperidine-1-carbonyl)nicotinamide] cannot be ordered by EC50: under 1 µM for the first, under 1 µM for the second.

First: CC(=O)c1ccc(Oc2ccc(NC(=O)c3ccc(C(=O)N4CCC(Oc5ccc6c(c5)ncn6C)CC4)nc3)cn2)cc1 [Compound 7-46, N-(6-(4-acetylphenoxy)pyridin-3-yl)-6-(4-(1-methyl-1H-benzo[d]imidazol-5-yloxy)piperidine-1-carbonyl)nicotinamide]
Second: Cc1cc(OC2CCN(C(=O)c3ccc(C(=O)NC4CCN(Cc5ccc(OC(F)(F)F)cc5)C[C@H]4F)cn3)CC2)ccc1S(C)(=O)=O (stereo partly drawn) [Compound 7-47, N-((3,4-trans)-3-fluoro-1-(4-(trifluoromethoxy)benzyl)piperidin-4-yl)-6-(4-(3-methyl-4-(methylsulfonyl)phenoxy)piperidine-1-carbonyl) nicotinamide]
The EC50 of the first is higher: 1 to 10 µM for the first, under 1 µM for the second.
